Patent US9845323B2, “2-(1,3,4-oxadiazol-2-yl)-7-oxo-1,6-diazabicyclo[3.2.1 ]octane derivatives and their use as antibacterial agents” (WOCKHARDT LIMITED, priority 2014, dated 2017)
Values after ≈ are worked out from the molar mass of the structure shown. Read-outs that look alike come from different tables or passages of the source.

Tests used:
[1] = molecular target: Class A beta-lactamase SHV 18 (K. pneumoniae ATCC 700603) (Klebsiella pneumoniae, UniProt P0AD64); experiment: Beta-lactamase enzyme inhibition (Nitrocefin, crude enzyme); format: biochemical
Class A beta-lactamase SHV 18 (K. pneumoniae ATCC 700603), sequence (P0AD64 22-286 limits assumed): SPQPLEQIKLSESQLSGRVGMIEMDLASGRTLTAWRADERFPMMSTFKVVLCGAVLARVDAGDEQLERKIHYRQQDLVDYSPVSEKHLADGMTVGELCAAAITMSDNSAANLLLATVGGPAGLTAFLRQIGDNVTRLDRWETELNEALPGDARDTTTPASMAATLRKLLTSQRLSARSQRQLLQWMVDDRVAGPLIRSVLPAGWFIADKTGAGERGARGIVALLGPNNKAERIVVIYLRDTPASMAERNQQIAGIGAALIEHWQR
Method: (§1) Absorbance was measured at 485 nm by UV-spectrophotometer. The IC50 was calculated by plotting absorbance against concentration through Sigmoidal dose response curve using Graph Pad software.

[2] = molecular target: T1, Class D beta-lactamase OXA 23 (A baumannii NCTC 13301) (Acinetobacter baumannii, UniProt Q9L4P2); experiment: as above; format: biochemical; details: A baumannii NCTC 13301 (OXA 23), Nitrocefin 100 μM
T1 construct: preincubated mixture of crude enzyme and the compounds; endogenous in cells; host or cells: A. baumannii NCTC 13301 (crude enzyme preparation)
T1 sequence (Q9L4P2 18-273): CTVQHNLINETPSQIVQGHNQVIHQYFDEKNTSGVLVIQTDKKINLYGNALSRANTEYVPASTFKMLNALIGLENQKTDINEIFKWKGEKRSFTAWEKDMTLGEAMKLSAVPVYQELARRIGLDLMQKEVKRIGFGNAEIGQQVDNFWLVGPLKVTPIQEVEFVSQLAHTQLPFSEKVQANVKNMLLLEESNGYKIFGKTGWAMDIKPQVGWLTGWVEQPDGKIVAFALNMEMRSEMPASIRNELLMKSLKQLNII
Method: as §1

[3] = tested on: K. Pneomoniae S48 (NDM, SHV, TEM); experiment: Agar dilution MIC (CLSI), compound alone; format: cell-based, K. pneumoniae
Method: (§2) The biological activity of representative compounds according to the invention against various bacterial strains was investigated. In a typical study, overnight grown bacterial cultures were diluted appropriately and inoculated on the agar media containing doubling dilutions of the test compounds. Observations for growth or no growth was performed after 16-20 hours of incubation at 35±2° C. in the ambient air. The overall procedure was performed as per Clinical and Laboratory Standards Institute (CLSI) recommendations, (Clinical and Laboratory Standards Institute (CLSI), Performance Standards for Antimicrobial Susceptibility Testing, 20th Informational Supplement, M 07-A9, Volume 32, No. 2, 2012). Molten Mueller Hinton Agar (BD, USA) containing serial dilutions of each antibacterial agent were poured on to the plates and allowed to solidify. Appropriate suspensions from the freshly grown cultures were prepared in normal saline so that about 10^4 CFU/spot of the organism was delivered on to the drug containing agar plates using automated multipoint inoculator (Mast, UK). The plates were incubated in Biochemical oxygen demand (BOD) incubator at 37° C. for 18 hours and then examined for growth.

[4] = tested on: K. pneumoniae H521 (KPC, SHV, TEM); experiment: Agar dilution MIC (CLSI), compound alone; format: cell-based
Method: as §2

[5] = tested on: E. coli NCTC 13353 (CTX-M15, OXA-1); experiment: Agar dilution MIC (CLSI), compound alone; format: cell-based
Method: as §2

[6] = tested on: Class C beta-lactamase CMY/DHA (E. coli M50); experiment: Beta-lactamase enzyme inhibition (Nitrocefin, crude enzyme); format: biochemical; details: Nitrocefin 100 μM
Method: as §1

E. coli NCTC 13353 = experiment: Agar dilution MIC of Ceftazidime, alone or with fixed 4 μg/ml compound; format: cell-based
Method: (§3) Agar dilution MIC was carried out in Muller Hinton Agar (Difco, USA) according to the recommendations of CLSI (M07-A9). In short, the plates were poured with a range of doubling increasing concentration of Ceftazidime and fixed 4 μg/ml compound according to invention containing MHA. The freshly overnight grown cultures were diluted in physiological saline to deliver per spot 10^4 CFU. The plates were inoculated with a multipoint inoculator (Mast, UK) and incubated at 35° C. for 18 hours. […] Table-5 provides the result of combination MIC results.

Citrobactor spp 58 MP = experiment: as above; format: cell-based
Method: as §3

K. pneumoniae H521 = experiment: as above; format: cell-based
Method: as §3

[7] = tested on: K. pneumoniae ATCC 700606; experiment: as above; format: cell-based
Method: as §3

E. coli M 50 = experiment: as above; format: cell-based
Method: as §3

K. pneumoniae B 77 = experiment: Agar dilution MIC (CLSI), compound alone; format: cell-based; details: Klebsiella pneumoniae, B77; K. pneumoniae B 77; Table 3; read-out: MIC
Method: as §2

[8] = read-out: Beta-lactamase enzyme inhibition IC50, K. pneumoniae ATCC 700603 (SHV 18), Nitrocefin 100 μM
[9] = Klebsiella pneumoniae, K. Pneomoniae S48 (NDM, SHV, TEM), compound alone, Table 2, read-out: MIC
[10] = Klebsiella pneumoniae, K. pneumoniae H521 (KPC, SHV, TEM), compound alone, Table 2, read-out: MIC
[11] = Escherichia coli, NCTC13353, E. coli NCTC 13353 (CTX-M15, OXA-1), compound alone, Table 2, read-out: MIC
[12] = Ceftazidime + compound fixed at 4 mcg/ml

Row | Compound | IC50 [1, 8] [nM] | IC50 [2] [nM] | MIC [3, 9] [µg/mL] | MIC [4, 10] [µg/mL] | MIC [5, 11] [µg/mL] | IC50 [6] [nM] | also measured
1 | O=C1N2C[C@@H](CC[C@H]2c2nnc(CC(c3ccccc3)c3ccccc3)o2)N1OS(=O)(=O)O [Example 9, (2S,5R)-sulfuric acid mono-{2-[5-(2,2-diphenyl-ethyl)-[1,3,4]-oxadiazol-2-yl]-7-oxo-1,6-diaza-bicyclo[3.2.1]oct-6-yl} ester] | 4 | 240 | > 32 | > 32 | > 32 |  | 
2 | O=C(O)[C@H]1/C(=C/CO)O[C@@H]2CC(=O)N21 [Clavulanic acid, clavulanic acid, reference compound] |  |  |  |  |  | > 10000 | 
3 | O=C1N2C[C@@H](CC[C@H]2c2nnc(C(c3ccccc3)c3ccccc3)o2)N1OS(=O)(=O)O [Example 8, (2S,5R)-sulfuric acid mono-[2-(5-benzhydryl-[1,3,4]-oxadiazol-2-yl)-7-oxo-1,6-diaza-bicyclo[3.2.1]oct-6-yl] ester] | 37 | 8 | > 32 | > 32 | > 32 | 17 | 
4 | O=C1N2C[C@@H](CC[C@H]2c2nnc(Cc3ccc(O)cc3)o2)N1OS(=O)(=O)O [Example 13, (2S,5R)-sulfuric acid mono-{2-[5-(4-hydroxy-benzyl)-[1,3,4]-oxadiazol-2-yl]-7-oxo-1,6-diaza-bicyclo[3.2.1]oct-6-yl} ester] | 13 | 39 |  |  |  | 0.1 | MIC ([3]; Klebsiella pneumoniae): > 32 µg/mL; MIC ([4]; Klebsiella pneumoniae): > 32 µg/mL; MIC ([5]; Escherichia coli, NCTC13353): > 32 µg/mL
5 | O=C1N2C[C@@H](CC[C@H]2c2nnc(CC3CNC3)o2)N1OS(=O)(=O)O [Example 1, (2S,5R)-Sulfuric acid mono-[2-(5-azetidin-3-ylmethyl-1,3,4-oxadiazol-2-yl)-7-oxo-1,6-diaza-bicyclo[3.2.1]oct-6-yl]ester] | 27 | 3950 | > 32 | > 32 | > 32 | 402 | 
6 | O=C1N2C[C@@H](CC[C@H]2c2nnc(CCCc3ccccc3)o2)N1OS(=O)(=O)O [Example 7, (2S,5R)-sulfuric acid mono-{2-[5-(3-phenyl-propyl)-[1,3,4]-oxadiazol-2-yl]-7-oxo-1,6-diaza-bicyclo[3.2.1]oct-6-yl} ester] | 40 | 115 | 32 (≈ 78.3 µM) | > 32 | > 32 | 4 | 
7 | O=C1N2C[C@@H](CC[C@H]2c2nnc(CCc3ccccc3)o2)N1OS(=O)(=O)O [Example 6, (2S,5R)-sulfuric acid mono-[2-(5-phenyl-ethyl-[1,3,4]-oxadiazol-2-yl)-7-oxo-1,6-diaza-bicyclo[3.2.1]oct-6-yl] ester] |  | 220 |  |  |  | 4 | IC50 ([1]; K. pneumoniae ATCC 700603 (SHV 18), Nitrocefin 100 μM, read-out: Beta-lactamase enzyme inhibition IC50): 32 nM; MIC ([3]; K. Pneomoniae S48 (NDM, SHV, TEM), compound alone, Table 2): >32 µg/mL; MIC ([4]; K. pneumoniae H521 (KPC, SHV, TEM), compound alone, Table 2): >32 µg/mL; MIC ([5]; E. coli NCTC 13353 (CTX-M15, OXA-1), compound alone, Table 2): >32 µg/mL; MIC of Ceftazidime in combination with the compound (E. coli NCTC 13353; [12]): 0.5 µg/mL; MIC of Ceftazidime in combination with the compound (Citrobactor spp 58 MP; [12]): 4 µg/mL; MIC of Ceftazidime in combination with the compound (K. pneumoniae H521; [12]): > 32 µg/mL; MIC of Ceftazidime in combination with the compound [7, 12]: 8 µg/mL; MIC of Ceftazidime in combination with the compound (E. coli M 50; [12]): 8 µg/mL
8 | COc1ccc(Cc2nnc([C@@H]3CC[C@@H]4CN3C(=O)N4OS(=O)(=O)O)o2)cc1 [Example 14, (2S,5R)-sulfuric acid mono-{2-[5-(4-methoxy-benzyl)-[1,3,4]-oxadiazol-2-yl]-7-oxo-1,6-diaza-bicyclo[3.2.1]oct-6-yl} ester] |  | 80 | > 32 | > 32 | > 32 | 13 | 
9 | O=C1N2C[C@@H](CC[C@H]2c2nnc(Cc3ccc(Cl)cc3)o2)N1OS(=O)(=O)O [Example 10, (2S,5R)-sulfuric acid mono-{2-[5-(4-chloro-benzyl)-[1,3,4]-oxadiazol-2-yl]-7-oxo-1,6-diaza-bicyclo[3.2.1]oct-6-yl} ester] |  | 108 |  |  |  | 10 | MIC ([3]; Klebsiella pneumoniae): > 32 µg/mL; MIC ([4]; Klebsiella pneumoniae): > 32 µg/mL; MIC ([5]; Escherichia coli, NCTC13353): > 32 µg/mL
10 | O=C1N2C[C@@H](CC[C@H]2c2nnc(CC3CCNCC3)o2)N1OS(=O)(=O)O [Example 3, (2S,5R)-sulfuric acid mono-[2-(5-piperidin-4-ylmethyl-[1,3,4]-oxadiazol-2-yl)-7-oxo-1,6-diaza-bicyclo[3.2.1]oct-6-yl] ester] | 39 | 5720 |  |  |  | 20 | MIC ([3]; Klebsiella pneumoniae): > 32 µg/mL; MIC ([4]; Klebsiella pneumoniae): > 32 µg/mL; MIC ([5]; Escherichia coli, NCTC13353): > 32 µg/mL
11 | O=C1N2C[C@@H](CC[C@H]2c2nnc(CC3CNCCN3)o2)N1OS(=O)(=O)O (stereo partly drawn) [Example 4, (2S,5R)-sulfuric acid mono[2-(5-(RS)-piperazin-2-ylmethyl-[1,3,4]-oxadiazol-2-yl)-7-oxo-1,6-diaza-bicyclo[3.2.1]oct-6-yl] ester] | 27 | 410 |  |  |  |  | MIC ([3]; Klebsiella pneumoniae, 18 h, K. Pneomoniae S48 (NDM, SHV, TEM), compound alone, Table 2, read-out: MIC): > 32 µg/mL; MIC ([4]; Klebsiella pneumoniae, 18 h, K. pneumoniae H521 (KPC, SHV, TEM), compound alone, Table 2, read-out: MIC): > 32 µg/mL; MIC ([5]; Escherichia coli, NCTC13353, 18 h, E. coli NCTC 13353 (CTX-M15, OXA-1), compound alone, Table 2, read-out: MIC): > 32 µg/mL
12 | CN(C)c1ccc(Cc2nnc([C@@H]3CC[C@@H]4CN3C(=O)N4OS(=O)(=O)O)o2)cc1 [Example 12, (2S,5R)-sulfuric acid mono-{2-[5-(4-dimethylamino-benzyl)-[1,3,4]-oxadiazol-2-yl]-7-oxo-1,6-diaza-bicyclo[3.2.1]oct-6-yl} ester] | 10 | 97 | > 32 | > 32 | > 32 | 6 | 
13 | Nc1ccc(Cc2nnc([C@@H]3CC[C@@H]4CN3C(=O)N4OS(=O)(=O)O)o2)cc1 [Example 11, (2S,5R)-sulfuric acid mono-{2-[5-(4-amino-benzyl)-[1,3,4]-oxadiazol-2-yl]-7-oxo-1,6-diaza-bicyclo[3.2.1]oct-6-yl} ester] |  | 108 |  |  |  | 13 | MIC ([3]; Klebsiella pneumoniae): 32 µg/mL (≈ 80.9 µM); MIC ([4]; Klebsiella pneumoniae): > 32 µg/mL; MIC ([5]; Escherichia coli, NCTC13353): > 32 µg/mL
14 | CC(C)(O/N=C(\C(=O)N[C@@H]1C(=O)N2C(C(=O)[O-])=C(C[n+]3ccccc3)CS[C@H]12)c1csc(N)n1)C(=O)O [Ceftazidime, ceftazidime, reference compound] |  |  |  |  |  |  | MIC of Ceftazidime alone (E. coli NCTC 13353; Ceftazidime alone, Table 5): 32 µg/mL; MIC of Ceftazidime alone (Citrobactor spp 58 MP; Ceftazidime alone, Table 5): 16 µg/mL; MIC of Ceftazidime alone (K. pneumoniae H521; Ceftazidime alone, Table 5): > 32 µg/mL; MIC of Ceftazidime alone ([7]; Ceftazidime alone, Table 5): 32 µg/mL; MIC of Ceftazidime alone (E. coli M 50; Ceftazidime alone, Table 5): > 32 µg/mL
15 | O=C1N2C[C@@H](CC[C@H]2c2nnc(C[C@@H]3CCCN3)o2)N1OS(=O)(=O)O [Example 2, (2S,5R)-sulfuric acid mono-[2-(5-(S)-pyrrolidin-2-ylmethyl-[1,3,4]-oxadiazol-2-yl)-7-oxo-1,6-diaza-bicyclo[3.2.1]oct-6-yl] ester] | 27 | 12900 | 32 (≈ 85.7 µM) | > 32 | > 32 |  | 
16 | NC(=O)[C@@H]1CC[C@@H]2CN1C(=O)N2OS(=O)(=O)O [Avibactam, avibactam, reference compound] | 98 |  |  |  |  | 146 | MIC (K. pneumoniae B 77): 32 µg/mL (≈ 121 µM)
